Residues, ends and D or L forms follow the SMILES beside them.
Molecular target: T1, CCSP-2 단백질 (Homo sapiens, UniProt Q5GFL6)
T1 sequence (Q5GFL6 24-755): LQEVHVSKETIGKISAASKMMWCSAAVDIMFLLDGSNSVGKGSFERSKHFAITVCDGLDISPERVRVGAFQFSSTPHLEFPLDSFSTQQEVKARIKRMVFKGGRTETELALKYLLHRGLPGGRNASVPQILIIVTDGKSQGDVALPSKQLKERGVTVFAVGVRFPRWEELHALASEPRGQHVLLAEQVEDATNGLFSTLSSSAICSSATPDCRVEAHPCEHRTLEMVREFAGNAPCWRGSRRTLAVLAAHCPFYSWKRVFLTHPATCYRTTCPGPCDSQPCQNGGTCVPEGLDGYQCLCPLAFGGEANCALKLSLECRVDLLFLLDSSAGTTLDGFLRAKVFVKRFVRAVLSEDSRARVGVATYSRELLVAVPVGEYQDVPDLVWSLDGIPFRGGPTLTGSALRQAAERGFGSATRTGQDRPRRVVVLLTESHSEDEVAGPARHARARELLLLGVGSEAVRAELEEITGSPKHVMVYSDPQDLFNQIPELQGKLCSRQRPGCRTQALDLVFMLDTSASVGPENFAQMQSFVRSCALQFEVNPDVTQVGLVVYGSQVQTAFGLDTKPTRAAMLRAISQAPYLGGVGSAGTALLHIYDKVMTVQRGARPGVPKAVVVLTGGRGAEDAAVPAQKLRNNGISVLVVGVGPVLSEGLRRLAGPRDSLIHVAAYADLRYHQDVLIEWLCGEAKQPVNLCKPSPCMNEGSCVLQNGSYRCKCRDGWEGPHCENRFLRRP
Experiment: Fluorescence correlation spectroscopy (FCS), dissociation constant with CCSP-2 protein
Type: binding
Conditions: (peptide)-(GGGSK)-FITC-NH2 conjugate; CCSP-2 0-300 uM; Fig. 5; read-out: 해리상수 (Dissociation constant, Kd)

| Kd [µM] | Compound |
| --- | --- |
| 55 | N=C(N)NCCC[C@H](NC(=O)[C@H](Cc1ccccc1)NC(=O)[C@H](CCCCN)NC(=O)[C@H](CO)NC(=O)[C@H](Cc1ccccc1)NC(=O)[C@@H](N)CCC(=O)O)C(=O)N[C@@H](CO)C(=O)O [MSJ2, EFSKFRS] (H-EFSKFRS-OH) |
| 25 | CSCC[C@H](N)C(=O)N[C@@H](CO)C(=O)N[C@H](C(=O)NCC(=O)N[C@@H](CC(C)C)C(=O)N[C@@H](CO)C(=O)N[C@@H](CO)C(=O)O)[C@@H](C)O [MSJ3, MSTGLSS] (H-MSTGLSS-OH) |
| 62 | CC(C)C[C@H](NC(=O)[C@H](CCCCN)NC(=O)[C@@H](N)CC(C)C)C(=O)NCC(=O)N[C@@H](CCC(=O)O)C(=O)N[C@@H](CCCCN)C(=O)N[C@@H](Cc1c[nH]c2ccccc12)C(=O)O [MSJ6, LKLGEKW] (H-LKLGEKW-OH) |
| 61 | N=C(N)NCCC[C@H](NC(=O)[C@H](CC(N)=O)NC(=O)[C@H](Cc1ccccc1)NC(=O)[C@H](CO)NC(=O)[C@H](CO)NC(=O)[C@H](Cc1ccc(O)cc1)NC(=O)CN)C(=O)O [MSJ11, GYSSFNR] (H-GYSSFNR-OH) |

Molecular target: T2, CCSP-2 (Homo sapiens, UniProt Q5GFL6)
T2 construct: His tag; made in house; host or cells: CCSP-2-overexpressing HeLa cell line (provided by Case Western Reserve University); the secreted protein was captured from the conditioned medium on Ni-NTA agarose
T2 sequence (Q5GFL6 24-755): T1 sequence (Q5GFL6 24-755)
Experiment: Phage display biopanning on purified CCSP-2 and sequencing of selected clones
Type: binding
Conditions: after 4 rounds of panning on CCSP-2

| 빈도 (frequency among the 56 sequences, percent) [%] | Compound |
| --- | --- |
| 16.1 | NTGSPYE [MSJ1] |
| 12.5 | WWNPLRP [MSJ10] |

Reference: patent publication KR20180060184A, “Ccsp-2와 특이적으로 결합하는 펩타이드 및 이의 용도” (재단법인 아산사회복지재단, priority 2016, dated 2018)
